pIC50: −log10 of the molar value.
Target: T1, aurora A kinase (Homo sapiens, UniProt O14965)
T1 sequence (O14965 1-403): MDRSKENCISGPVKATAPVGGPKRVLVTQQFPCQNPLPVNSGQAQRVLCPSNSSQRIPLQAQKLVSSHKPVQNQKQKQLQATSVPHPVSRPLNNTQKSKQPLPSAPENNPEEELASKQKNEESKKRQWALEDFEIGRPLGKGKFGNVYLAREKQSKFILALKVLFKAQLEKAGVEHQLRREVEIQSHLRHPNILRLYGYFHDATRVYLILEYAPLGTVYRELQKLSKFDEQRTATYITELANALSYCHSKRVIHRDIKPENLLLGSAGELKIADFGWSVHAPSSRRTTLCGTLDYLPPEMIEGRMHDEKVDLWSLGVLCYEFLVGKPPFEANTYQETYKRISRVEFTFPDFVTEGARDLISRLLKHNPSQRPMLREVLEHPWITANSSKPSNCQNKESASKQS
Experiment: Aurora A in vitro kinase assay (ELISA)
Type: biochemical
Details: 30 μM ATP, 45 minutes
Method: Kinase activities were measured by Enzyme-Linked Immunosorbent Assay (ELISA): Maxisorp 384-well plates (Nunc) were coated with recombinant fusion protein comprising residues 1-15 of Histone H3 fused to the N-terminus of Glutathione-S-Transferase. Plates were then blocked with a solution of 1 mg/mL I-block (Tropix Inc) in phosphate-buffered saline. Kinase reactions were carried out in the wells of the ELISA plate by combining an appropriate amount of Aur A and B kinases and/or mutants thereof with test compound and 30 μM ATP. The reaction buffer was 1× Kinase Buffer (Cell Signaling Technologies) supplemented with 1 μg/mL I-block. Reactions were stopped after 45 minutes by addition of 25 mM EDTA. After washing, susbstrate phosphorylation was detected by addition of anti-phospho-Histone H3 (Ser 10) 6G3 mAb (Cell Signaling cat #9706) and sheep anti-mouse pAb-HRP (Amersham cat# NA931V), followed by colorimetric development with TMB.

pIC50 | SMILES
8.60 | CN(C)CCNC(=O)c1ccc(Nc2ncc(Cl)c(Nc3ccccc3NC(=O)C3CC3)n2)cc1 [compound 9]
8.89 | N#Cc1ccc(Nc2ncc(Cl)c(Nc3ccccc3NC(=O)C3CC3)n2)cc1 [compound 32]
7.92 | CC(C)(C)C1CCC(NC(=O)c2ccc(Nc3ncc(Cl)c(Nc4ccccc4NC(=O)C4CC4)n3)cc2)CC1 (centres unmarked) [compound 40]
8.74 | O=C(Nc1ccccc1Nc1nc(Nc2ccc(C(=O)N3CCC(O)(Cc4ccccc4)CC3)cc2)ncc1Cl)C1CC1 [compound 44]
8.19 | O=C(Nc1ccccc1Nc1nc(Nc2ccc(-n3cccc3)cc2)ncc1Cl)C1CC1 [compound 53]
8.36 | O=C(/C=C/c1ccccc1)Nc1ccccc1Nc1nc(Nc2ccc(N3CCOCC3)cc2)ncc1Cl [compound 63]
7.74 | O=C(Nc1ccccc1Nc1nc(Nc2ccc(N3CCOCC3)cc2)ncc1Cl)c1ccccc1 [compound 67]
7.85 | O=C(Nc1ccccc1Nc1nc(Nc2ccc(N3CCOCC3)cc2)ncc1Cl)C1CCCCC1 [compound 75]
8.38 | CC(C)(C)C(=O)Nc1ccccc1Nc1nc(Nc2ccc(N3CCOCC3)cc2)ncc1Cl [compound 77]
7.44 | O=C(Nc1ccccc1Oc1nc(Nc2ccc(N3CCOCC3)cc2)ncc1Cl)C1CC1 [compound 80]
8.30 | Nc1ccccc1Oc1nc(Nc2ccc(N3CCS(=O)(=O)CC3)cc2)ncc1Cl [compound 83]
8.37 | O=C(NC1CC1)c1ccccc1Nc1nc(Nc2ccc(N3CCOCC3)cc2)ncc1Cl [compound 85]
8.30 | O=C(Nc1ccccc1Nc1nc(Nc2ccc(N3CCOCC3)cc2)ncc1F)C1CC1 [compound 111]
7.99 | O=C(Nc1ccccc1Nc1nc(Nc2ccc(N3CCOCC3)cc2)ncc1[N+](=O)[O-])C1CC1 [compound 127]

Reference: patent US20100144732A1, “PYRIMIDINE KINASE INHIBITORS” (priority 2006, published 2010)
